Laboratory results as given in the NIST ThermoML archive (doi:10.1021/je400539h).
± gives the expanded uncertainty stated by the source.

Assay: xn = mol fraction of the nth substance listed
Details: 101 kPa, Liquid

C1COCCO1 [1,4-dioxane] + CCCCCCOC(C)=O
x2 = 0
Details | mass density [kg/m3] | speed of sound [m/s] | viscosity [mPa·s]
298.15 K | 1028.2 ± 1 | 1328 ± 11 | 1.159 ± 0.028
303.15 K | 1022.7 ± 1 | 1320 ± 11 | 1.087 ± 0.027
308.15 K | 1017.4 ± 1 | 1312 ± 11 | 1.013 ± 0.025
313.15 K | 1011.1 ± 1 | 1304 ± 11 | 0.934 ± 0.023

C=COCCCC [1-(ethenyloxy)butane] + CCCCCCOC(C)=O
Details | mass density [kg/m3] | speed of sound [m/s] | viscosity [mPa·s]
298.15 K, x2 = 0 | 780.2 ± 1.9 | 1096 ± 10 | 0.4 ± 0.015
298.15 K, x2 = 0.0806 | 790.9 ± 1.8 | 1100 ± 10 | 0.44 ± 0.015
298.15 K, x2 = 0.1668 | 801.3 ± 1.8 | 1104 ± 10 | 0.486 ± 0.016
298.15 K, x2 = 0.2521 | 810.8 ± 1.7 | 1112 ± 10 | 0.538 ± 0.017
298.15 K, x2 = 0.3443 | 820.3 ± 1.7 | 1120 ± 10 | 0.596 ± 0.018
298.15 K, x2 = 0.4384 | 829.2 ± 1.6 | 1128 ± 10 | 0.657 ± 0.019
298.15 K, x2 = 0.5392 | 838.1 ± 1.6 | 1144 ± 10 | 0.726 ± 0.02
298.15 K, x2 = 0.644 | 846.6 ± 1.6 | 1160 ± 10 | 0.798 ± 0.021
298.15 K, x2 = 0.7555 | 854.7 ± 1.5 | 1180 ± 10 | 0.879 ± 0.023
298.15 K, x2 = 0.8741 | 862.1 ± 1.5 | 1204 ± 11 | 0.965 ± 0.024
303.15 K, x2 = 0 | 774.1 ± 1.9 | 1084 ± 10 | 0.387 ± 0.014
303.15 K, x2 = 0.0806 | 784.6 ± 1.9 | 1088 ± 10 | 0.423 ± 0.015
303.15 K, x2 = 0.1668 | 795.1 ± 1.8 | 1088 ± 10 | 0.465 ± 0.016
303.15 K, x2 = 0.2521 | 804.8 ± 1.8 | 1096 ± 10 | 0.508 ± 0.016
303.15 K, x2 = 0.3443 | 814.5 ± 1.7 | 1104 ± 10 | 0.559 ± 0.017
303.15 K, x2 = 0.4384 | 823.7 ± 1.7 | 1112 ± 10 | 0.615 ± 0.018
303.15 K, x2 = 0.5392 | 832.8 ± 1.6 | 1124 ± 10 | 0.675 ± 0.019
303.15 K, x2 = 0.644 | 841.3 ± 1.6 | 1140 ± 10 | 0.739 ± 0.02
303.15 K, x2 = 0.7555 | 849.5 ± 1.6 | 1160 ± 10 | 0.812 ± 0.021
303.15 K, x2 = 0.8741 | 857.1 ± 1.5 | 1184 ± 10 | 0.891 ± 0.023
308.15 K, x2 = 0 | 768.2 ± 2 | 1072 ± 10 | 0.365 ± 0.014
308.15 K, x2 = 0.0806 | 778.6 ± 1.9 | 1072 ± 10 | 0.398 ± 0.015
308.15 K, x2 = 0.1668 | 789.1 ± 1.8 | 1072 ± 10 | 0.434 ± 0.015
308.15 K, x2 = 0.2521 | 798.8 ± 1.8 | 1076 ± 10 | 0.474 ± 0.016
308.15 K, x2 = 0.3443 | 808.7 ± 1.7 | 1084 ± 10 | 0.52 ± 0.017
308.15 K, x2 = 0.4384 | 818.1 ± 1.7 | 1092 ± 10 | 0.567 ± 0.017
308.15 K, x2 = 0.5392 | 827.4 ± 1.7 | 1104 ± 10 | 0.622 ± 0.018
308.15 K, x2 = 0.644 | 836.3 ± 1.6 | 1120 ± 10 | 0.681 ± 0.019
308.15 K, x2 = 0.7555 | 844.8 ± 1.6 | 1140 ± 10 | 0.745 ± 0.02
308.15 K, x2 = 0.8741 | 852.7 ± 1.5 | 1164 ± 10 | 0.817 ± 0.021
313.15 K, x2 = 0 | 763.3 ± 2 | 1060 ± 10 | 0.354 ± 0.014
313.15 K, x2 = 0.0806 | 773.6 ± 1.9 | 1056 ± 10 | 0.385 ± 0.014
313.15 K, x2 = 0.1668 | 784 ± 1.9 | 1056 ± 10 | 0.418 ± 0.015
313.15 K, x2 = 0.2521 | 793.7 ± 1.8 | 1060 ± 10 | 0.454 ± 0.015
313.15 K, x2 = 0.3443 | 803.6 ± 1.8 | 1064 ± 10 | 0.496 ± 0.016
313.15 K, x2 = 0.4384 | 813 ± 1.7 | 1072 ± 10 | 0.538 ± 0.017
313.15 K, x2 = 0.5392 | 822.3 ± 1.7 | 1084 ± 10 | 0.588 ± 0.018
313.15 K, x2 = 0.644 | 831.2 ± 1.6 | 1100 ± 10 | 0.641 ± 0.018
313.15 K, x2 = 0.7555 | 839.7 ± 1.6 | 1120 ± 10 | 0.7 ± 0.019
313.15 K, x2 = 0.8741 | 847.7 ± 1.6 | 1144 ± 10 | 0.763 ± 0.021

COc1ccccc1 [anisole] + CCCCCCOC(C)=O
x2 = 0
Details | mass density [kg/m3] | speed of sound [m/s] | viscosity [mPa·s]
298.15 K | 993.6 ± 1 | 1396 ± 12 | 0.97 ± 0.024
303.15 K | 989.4 ± 1 | 1380 ± 12 | 0.917 ± 0.023
308.15 K | 984.6 ± 1 | 1364 ± 12 | 0.863 ± 0.022
313.15 K | 980 ± 1 | 1348 ± 11 | 0.803 ± 0.021

CCCCCCOC(C)=O [hexyl ethanoate] + C1CCOC1
Details | mass density [kg/m3] | speed of sound [m/s] | viscosity [mPa·s]
298.15 K, x1 = 0.0514 | 882.2 ± 1.4 | 1260 ± 11 | 0.485 ± 0.016
298.15 K, x1 = 0.1091 | 882.2 ± 1.4 | 1256 ± 11 | 0.526 ± 0.017
298.15 K, x1 = 0.1735 | 882.1 ± 1.4 | 1248 ± 11 | 0.57 ± 0.017
298.15 K, x1 = 0.2467 | 881.7 ± 1.4 | 1240 ± 11 | 0.616 ± 0.018
298.15 K, x1 = 0.3289 | 880.9 ± 1.4 | 1236 ± 11 | 0.669 ± 0.019
298.15 K, x1 = 0.4241 | 879.6 ± 1.4 | 1232 ± 11 | 0.73 ± 0.02
298.15 K, x1 = 0.5384 | 877.8 ± 1.4 | 1232 ± 11 | 0.79 ± 0.021
298.15 K, x1 = 0.6648 | 875.5 ± 1.4 | 1232 ± 11 | 0.875 ± 0.022
298.15 K, x1 = 0.8185 | 872.4 ± 1.4 | 1232 ± 11 | 0.967 ± 0.024
298.15 K, x1 = 1 | 868.3 ± 1.5 | 1236 ± 11 | 1.071 ± 0.026
303.15 K, x1 = 0.0514 | 878.8 ± 1.4 | 1236 ± 11 | 0.471 ± 0.016
303.15 K, x1 = 0.1091 | 878.6 ± 1.4 | 1232 ± 11 | 0.504 ± 0.016
303.15 K, x1 = 0.1735 | 878.3 ± 1.4 | 1224 ± 11 | 0.543 ± 0.017
303.15 K, x1 = 0.2467 | 877.6 ± 1.4 | 1212 ± 11 | 0.584 ± 0.018
303.15 K, x1 = 0.3289 | 876.6 ± 1.4 | 1208 ± 11 | 0.632 ± 0.018
303.15 K, x1 = 0.4241 | 875.2 ± 1.4 | 1204 ± 11 | 0.683 ± 0.019
303.15 K, x1 = 0.5384 | 873.3 ± 1.4 | 1204 ± 11 | 0.745 ± 0.02
303.15 K, x1 = 0.6648 | 870.9 ± 1.4 | 1204 ± 11 | 0.812 ± 0.021
303.15 K, x1 = 0.8185 | 867.7 ± 1.5 | 1204 ± 11 | 0.892 ± 0.023
303.15 K, x1 = 1 | 863.9 ± 1.5 | 1216 ± 11 | 0.982 ± 0.024
308.15 K, x1 = 0.0514 | 872.9 ± 1.4 | 1216 ± 11 | 0.456 ± 0.016
308.15 K, x1 = 0.1091 | 872.7 ± 1.4 | 1208 ± 11 | 0.484 ± 0.016
308.15 K, x1 = 0.1735 | 872.4 ± 1.4 | 1200 ± 11 | 0.518 ± 0.016
308.15 K, x1 = 0.2467 | 871.9 ± 1.4 | 1188 ± 10 | 0.554 ± 0.017
308.15 K, x1 = 0.3289 | 871.2 ± 1.4 | 1184 ± 10 | 0.595 ± 0.018
308.15 K, x1 = 0.4241 | 870 ± 1.4 | 1180 ± 10 | 0.641 ± 0.018
308.15 K, x1 = 0.5384 | 868.2 ± 1.5 | 1180 ± 10 | 0.692 ± 0.019
308.15 K, x1 = 0.6648 | 866 ± 1.5 | 1180 ± 10 | 0.751 ± 0.02
308.15 K, x1 = 0.8185 | 863 ± 1.5 | 1180 ± 10 | 0.819 ± 0.022
308.15 K, x1 = 1 | 859.8 ± 1.5 | 1196 ± 11 | 0.898 ± 0.023
313.15 K, x1 = 0.0514 | 866.7 ± 1.5 | 1200 ± 11 | 0.416 ± 0.015
313.15 K, x1 = 0.1091 | 866.5 ± 1.5 | 1188 ± 10 | 0.444 ± 0.015
313.15 K, x1 = 0.1735 | 866.2 ± 1.5 | 1176 ± 10 | 0.475 ± 0.016
313.15 K, x1 = 0.2467 | 865.8 ± 1.5 | 1168 ± 10 | 0.508 ± 0.016
313.15 K, x1 = 0.3289 | 865.2 ± 1.5 | 1164 ± 10 | 0.547 ± 0.017
313.15 K, x1 = 0.4241 | 864.2 ± 1.5 | 1156 ± 10 | 0.591 ± 0.018
313.15 K, x1 = 0.5384 | 862.6 ± 1.5 | 1152 ± 10 | 0.639 ± 0.018
313.15 K, x1 = 0.6648 | 860.5 ± 1.5 | 1152 ± 10 | 0.695 ± 0.019
313.15 K, x1 = 0.8185 | 857.8 ± 1.5 | 1152 ± 10 | 0.761 ± 0.02
313.15 K, x1 = 1 | 855 ± 1.5 | 1176 ± 10 | 0.836 ± 0.022
